Experimental data as given in patent US9981968B2, “Substituted pyrrolo[2,3-d]pyrimidines for the treatment of cancer and proliferative disorders” (Northwestern University, priority 2013, dated 2018).

system: MM.1S cells; assay: MTS CellTiter 96 cell proliferation assay, MM.1S; assay type: cell-based, human; details: 0.1-10 μM, MTS assay, FIG. 1, compared with 8-amino adenosine
Experimental: Cell viability was assessed by MTS assay as follows.
The MTS CellTiter 96 assay is a colorimetric method to assess the number of viable cells based on the conversion of a tetrazolium compound (MTS) to a formazan product by the mitochondrial dehydrogenase enzyme of the cells. This assay is used to determine the number of viable cells remaining following a drug treatment in comparison to the number of viable cells that are only treated with the drug vehicle (control cells). The amount of formazan product in the control cells is normalized to 100% and the amount of formazan in the drug treated cells is expressed as a percentage of control. This is used to generate dose response curve and estimate the drug concentration that produced a 50% decrease in the number of viable cells.

SMILES | decreasing cell proliferation
Cc1ncnc2c1c(C(F)(F)F)cn2CC1CCN(C(=O)OC(C)(C)C)CC1 [NUCC-0000482] | not effective in decreasing cell proliferation
Cc1ncnc2c1c(C(F)(F)F)cn2CC1CCNCC1 [NUCC-0000501] | not effective in decreasing cell proliferation

same assay, conditions: Homo sapiens, MM1.S, MTS cell proliferation assay, read-out: Estimated IC50

SMILES | IC50 [µM]
Cc1c(C)n(Cc2ccccc2)c2ncnc(Cl)c12 [NUCC-0000280] | 5
Clc1ncnc2c1c1c(n2Cc2ccccc2)CCCC1 [NUCC-0000308] | 10
CC(C)(C)OC(=O)N1CCC(Cn2cc(C(F)(F)F)c3c(Cl)ncnc32)CC1 [NUCC-0000357] | 1.5
FC(F)(F)c1cn(CCN2CCCC2)c2ncnc(Cl)c12 [NUCC-0000358] | 3
Cc1c(C)n(Cc2ccc(F)cc2)c2ncnc(Cl)c12 [NUCC-0000360] | 7
Cc1c(C)n(Cc2ccco2)c2ncnc(Cl)c12 [NUCC-0000363] | 10
Cc1c(C)n(CCN2CCOCC2)c2ncnc(Cl)c12 [NUCC-0000413] | 5
NC(=O)N1CCC(Cn2cc(C(F)(F)F)c3c(Cl)ncnc32)CC1 [NUCC-0000469] | 10
FC(F)(F)c1cn(CC2CCNCC2)c2ncncc12 [NUCC-0000470] | 10
Clc1nc(Cl)c2ccn(CC3CCNCC3)c2n1 [NUCC-0000575] | 3
CS(=O)(=O)N1CCC(Cn2ccc3c(Cl)nc(Cl)nc32)CC1 [NUCC-0000577] | 5
CS(=O)(=O)N1CCC(Cn2ccc3c(Cl)ncnc32)CC1 [NUCC-0000578] | 5
CC(=O)N1CCC(Cn2ccc3c(Cl)nc(Cl)nc32)CC1 [NUCC-0000595] | 3
OCCOCn1cc(C(F)(F)F)c2c(Cl)ncnc21 [NUCC-0050715] | 5
Cc1cn(CC2CCN(S(C)(=O)=O)CC2)c2ncnc(Cl)c12 [NUCC-0054040] | 3
FC(F)(F)c1cc2c(Cl)ncnc2n1CC1CCNCC1 [NUCC-0054150] | > 10
CS(=O)(=O)N1CCC(Cn2c(C(F)(F)F)cc3c(Cl)ncnc32)CC1 [NUCC-0054151] | > 10

Second part, the compound after the results:

IC50 [µM] | SMILES
3 | FC(F)(F)c1cn(Cc2ccccc2)c2ncnc(Cl)c12 [NUCC-0000315]
5 | Fc1ccc(Cn2cc(C(F)(F)F)c3c(Cl)ncnc32)cc1 [NUCC-0000325]
3 | FC(F)(F)c1cn(Cc2cccnc2)c2ncnc(Cl)c12 [NUCC-0000326]
5 | FC(F)(F)c1cn(Cc2ccncc2)c2ncnc(Cl)c12 [NUCC-0000327]
3 | FC(F)(F)c1cn(CC2CCOCC2)c2ncnc(Cl)c12 [NUCC-0000329]
10 | Cc1c(C)n(CC2CCCCC2)c2ncnc(Cl)c12 [NUCC-0000359]
10 | COCCn1c(C)c(C)c2c(Cl)ncnc21 [NUCC-0000361]
10 | Cc1c(C)n(Cc2ccccc2)c2ncnc(N)c12 [NUCC-0000362]
10 | Cc1c(C)n(Cc2ccc(F)cc2)c2ncnc(N)c12 [NUCC-0000375]
1.5 | COc1cccc(Cn2c(C)c(C)c3c(Cl)ncnc32)c1 [NUCC-0000409]
2.5 | Fc1ccc(Cn2c3c(c4c(Cl)ncnc42)CCCC3)cc1 [NUCC-0000412]
8 | Cc1ncnc2c1cc(C)n2C1O[C@H](CO)[C@@H](O)[C@H]1O (stereo partly shown) [NUCC-0000477]
3 | Nc1nc(Cl)c2c(C(F)(F)F)cn(CC3CCNCC3)c2n1 [NUCC-0000570]
5 | CC(C)(C)OC(=O)N1CCC(Cn2ccc3c(Cl)nc(Cl)nc32)CC1 [NUCC-0000571]
3 | CS(=O)(=O)N1CCC(Cn2cc(C(F)(F)F)c3c(Cl)nc(N)nc32)CC1 [NUCC-0000576]
5 | O=C(N1CCC(Cn2cc(C(F)(F)F)c3c(Cl)ncnc32)CC1)C(F)(F)F [NUCC-0000593]
2 | CS(=O)(=O)N1CCC(Cn2cc(C(F)(F)F)c3c(Br)ncnc32)CC1 [NUCC-0000598]
2 | Cc1cn(CC2CCN(C(=O)OC(C)(C)C)CC2)c2ncnc(Cl)c12 [NUCC-0054036]
2 | COc1cccc(Cn2cc(C(F)(F)F)c3c(Cl)ncnc32)c1 [NUCC-0054037]
2 | COc1ccc(Cn2cc(C(F)(F)F)c3c(Cl)ncnc32)cc1 [NUCC-0054038]
1 | Cc1cn(CC2CCNCC2)c2ncnc(Cl)c12 [NUCC-0054039]
7 | FC(F)(F)c1c[nH]c2ncnc(Cl)c12 [NUCC-0054043]

same assay, conditions: MTS cell proliferation assay

Estimated IC50 | SMILES
In- active | Cc1ncnc2c1c(C(F)(F)F)cn2CC1CCN(C(=O)OC(C)(C)C)CC1 [NUCC-0000482]
In- active | Cc1ncnc2c1c(C(F)(F)F)cn2CC1CCNCC1 [NUCC-0000501]

system: acute leukemia cell lines (THP-1, K562, Kasumi-1, and U937); assay: Inhibition of viability of acute leukemia cell lines; assay type: cell-based, human; details: THP-1, K562, Kasumi-1, U937; FIGS. 11-14
Experimental: Compounds 381, 383, 409 (as test compounds) and Compound 501 (as a negative control) were administered to a variety of acute leukemia cell lines (THP-1. K562, Kasumi-1, and U937) in order to test their ability to inhibit cell growth as compared to 8-amino adenosine (8NH2-Ado) and 8-chloro adenosine (8Cl-Ado) (as positive controls) as in the previous Examples.

SMILES | cell viability
COc1cccc(Cn2c(C)c(C)c3c(Cl)ncnc32)c1 [NUCC-0000409] | reduce cell viability significantly

system: U937 cell lines; assay: Immunoblot of PARP cleavage and cleaved caspase 3; assay type: cell-based, human; details: U937 cell lysates, FIG. 17
Experimental: FIG. 17. Immunoblot of cell lysates from U937 cell lines treated with Compounds 381, 383, 409 (as test compounds) and Compound 501 (as a negative control) as compared to 8-amino adenosine (8NH2-Ado) and 8-chloro adenosine (8Cl-Ado) (as positive controls). The impact of the compounds on proteins associated with cell death was assessed via performing an immunoblot. (See FIG. 17). PARP cleavage indicated activation of the caspase cascade and cell death by induction of apoptosis. Similarly detection of cleaved caspase 3 indicated activation of caspase activity and cell death by apoptosis. GAPDH was included as a loading control to indicate approximately equal loading of protein.

SMILES | induction of apoptosis (PARP cleavage, cleaved caspase 3)
Nc1ncnc2c1nc(Cl)n2[C@@H]1O[C@H](CO)[C@@H](O)[C@H]1O [Compound 8-Cl-Ado, 8-chloro adenosine] | Induction of apoptosis was observed
Nc1ncnc2c1nc(N)n2[C@@H]1O[C@H](CO)[C@@H](O)[C@H]1O [Compound 8-NH2-Ado, 8-amino adenosine] | Induction of apoptosis was observed
